The text below walks through data of patent US6420569B1, “Process for producing pyrone compounds” (Sumitomo Chemical Company, Limited, priority 2000, dated 2002).

This assay relates to houseflies (Musca domestica). Nature of the assay: Knock-down test against housefly. Format: in vivo. The conditions noted are these: 0.5% oil solution, 0.7 ml sprayed in 70 cm-cubic glass chamber; ten adult houseflies; 15 minutes after application; two repetitions. The procedure: (Knock-down Test Against Housefly)
A half part of 4-hydroxy-6-methyl-3-(4-methylpentanoyl)-2-pyrone was dissolved in 10 parts of dichloromethane and mixed with 89.5 parts of Isopar M (isoparaffin produced by Exxon Chemical) for preparing 0.5% oil solution. Part(s) means part(s) by weight.
Ten adult houseflies (Musca domestica) including 5 males and 5 females were released in a 70 cm-cubic glass chamber (volume: […]). By a spray-gun, 0.7 ml of the above oil solution was applied at a pressure of 0.9 kg/cm^2 from a small window on the wall of the chamber. After 15 minutes from application, knocked-down houseflies were observed. As a result of two repetitions, the knocked-down ratio was 95%.

With `Cc1cc(O)c(C(=O)CCC(C)C)c(=O)o1` [4-Hydroxy-6-methyl-3-(4-methylpentanoyl)-2-pyrone], the knocked-down ratio turned out to be 95%.
